Source: the supplement of paper PMC10307832

Key:
Test in all cases: relative viability (nuclei count vs DMSO), 5 days (fraction); higher = more cells survive
Wnt-C59 + Bortezomib = compound: CC1=NC=CC(=C1)C2=CC=C(C=C2)CC(=O)NC3=CC=C(C=C3)C4=CN=CC=C4 [Wnt-C59] + CC(C)C[C@H](NC(=O)[C@H](Cc1ccccc1)NC(=O)c1cnccn1)B(O)O [Bortezomib] (partner 0.002 µM)
Procedure, shortened: (§1)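 Cells from lung cancer lines were seeded into 1536-well plates and, one day later, dosed by pin tool. Treatments were either a single drug or a fixed dose of an anchor drug with five library-drug doses (not always all listed) in √10 steps. After 5 days, nuclei were stained in a one-step fixation (final 0.05% Triton X-100, 1% formaldehyde, 1 ug/ml Hoechst) and counted on 4× images, and relative viability is the treated-to-vehicle nuclei ratio, as the median of duplicate plates.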

Wnt-C59 + AZD7762 = compound: CC1=NC=CC(=C1)C2=CC=C(C=C2)CC(=O)NC3=CC=C(C=C3)C4=CN=CC=C4 [Wnt-C59] + NC(=O)Nc1cc(-c2cccc(F)c2)sc1C(=O)N[C@H]1CCCNC1 [AZD7762] (partner 0.2 µM)
Procedure, shortened: as §1

Lapatinib + Crizotinib = compound: CS(=O)(=O)CCNCc1ccc(-c2ccc3ncnc(Nc4ccc(OCc5cccc(F)c5)c(Cl)c4)c3c2)o1 [Lapatinib] + C[C@@H](Oc1cc(-c2cnn(C3CCNCC3)c2)cnc1N)c1c(Cl)ccc(F)c1Cl [Crizotinib] (partner 1 µM)
Procedure, shortened: as §1

Lapatinib + Olaparib = compound: CS(=O)(=O)CCNCc1ccc(-c2ccc3ncnc(Nc4ccc(OCc5cccc(F)c5)c(Cl)c4)c3c2)o1 [Lapatinib] + O=C(c1cc(Cc2n[nH]c(=O)c3ccccc23)ccc1F)N1CCN(C(=O)C2CC2)CC1 [Olaparib] (partner 8 µM)
Procedure, shortened: as §1

| Cell Line | relative viability (Wnt-C59 + Bortezomib; first compound 0.001 µM) | relative viability (Wnt-C59 + Bortezomib; first compound 0.01 µM) | relative viability (Wnt-C59 + Bortezomib; first compound 0.03162 µM) | relative viability (Wnt-C59 + Bortezomib; first compound 0.1 µM) | relative viability (Wnt-C59 + AZD7762; first compound 0.001 µM) | relative viability (Wnt-C59 + AZD7762; first compound 0.01 µM) | relative viability (Wnt-C59 + AZD7762; first compound 0.03162 µM) | relative viability (Wnt-C59 + AZD7762; first compound 0.1 µM) | relative viability (Lapatinib + Crizotinib; first compound 0.02 µM) | relative viability (Lapatinib + Crizotinib; first compound 0.06325 µM) | relative viability (Lapatinib + Crizotinib; first compound 0.2 µM) | relative viability (Lapatinib + Crizotinib; first compound 0.6325 µM) | relative viability (Lapatinib + Crizotinib; first compound 2 µM) | relative viability (Lapatinib + Olaparib; first compound 0.02 µM) | relative viability (Lapatinib + Olaparib; first compound 0.06325 µM) | relative viability (Lapatinib + Olaparib; first compound 0.2 µM) | relative viability (Lapatinib + Olaparib; first compound 0.6325 µM) | relative viability (Lapatinib + Olaparib; first compound 2 µM) |
| --- | --- | --- | --- | --- | --- | --- | --- | --- | --- | --- | --- | --- | --- | --- | --- | --- | --- | --- |
| NCI-H1437 | 0.576 | 0.433 | 0.551 | 0.395 | 1.14 | 1.16 | 1.18 | 1.08 | 0.85 | 0.919 | 0.94 | 0.914 | 1 | 0.62 | 0.626 | 0.62 | 0.609 | 0.507 |
| PC-3 [JPC-3] | 0.874 | 0.782 | 0.881 | 0.856 | 0.883 | 1.05 | 0.758 | 0.927 |  | 0.965 | 1.09 | 0.998 | 0.656 |  | 1.09 |  | 1.16 | 0.883 |
| NCI-H727 | 0.948 | 0.782 | 0.951 | 1.08 | 0.776 | 0.528 | 0.598 | 0.687 | 0.77 | 0.663 | 0.657 | 0.718 | 0.572 | 0.666 |  | 0.88 | 0.668 | 0.645 |
| NCI-H1666 | 0.797 | 0.749 | 0.807 | 0.89 | 0.95 | 0.819 | 0.82 | 0.857 | 0.787 | 1.05 | 0.847 | 0.842 | 0.357 | 0.761 | 0.776 | 0.743 | 0.703 | 0.719 |
| NCI-H1792 | 0.959 | 0.963 | 1.04 | 0.946 | 0.659 | 0.676 | 0.701 | 0.854 | 0.92 | 0.987 | 0.985 | 0.946 | 0.918 |  |  | 0.377 | 0.342 | 0.351 |
| LCLC-103H | 1.04 | 1.12 | 1.06 | 1.1 | 0.798 | 0.712 | 0.824 | 0.775 |  | 0.93 | 0.934 | 0.963 | 0.931 | 0.786 | 0.664 | 0.762 | 0.719 | 0.762 |
| BEN | 0.821 | 0.88 | 1.03 | 0.878 | 0.823 | 0.623 | 0.761 | 0.856 | 0.826 | 0.672 | 1.06 | 0.828 | 0.747 | 1.13 | 1 | 1.07 | 1.01 | 0.837 |
| LC-2-ad | 1.1 | 1.03 | 1.11 | 1.01 | 0.851 | 0.829 | 0.882 | 0.865 |  | 0.487 | 0.473 | 0.436 | 0.375 |  | 0.796 | 0.704 | 0.675 | 0.694 |
| HARA | 1.1 | 1.01 | 1.19 | 1.15 | 0.408 | 0.348 | 0.38 | 1.61 | 1.04 | 1.28 | 0.932 | 0.934 | 0.447 | 0.712 | 0.552 | 0.957 | 0.618 | 0.402 |
| CAL-12T | 0.979 |  | 0.875 | 1.14 | 0.595 | 0.588 | 0.505 | 0.631 | 0.593 | 0.59 | 0.575 | 0.57 | 0.326 | 0.703 | 0.745 | 0.71 | 0.599 | 0.556 |
| NCI-H1975 | 0.297 | 0.372 | 0.461 | 0.37 | 0.72 | 0.653 | 0.724 | 0.773 | 0.949 | 0.837 | 1.05 | 0.85 | 0.736 | 0.85 | 0.771 | 0.772 | 0.76 | 0.503 |
| PC-14 | 0.949 | 0.9 | 0.903 | 0.733 | 0.414 | 0.367 | 0.351 | 0.457 | 0.815 | 0.9 | 0.946 | 0.898 | 0.826 | 0.209 | 0.286 | 0.291 | 0.263 | 0.217 |
| A-427 | 0.98 | 1.01 | 1 | 0.979 | 0.801 | 0.815 | 0.831 | 0.688 |  | 0.804 | 0.945 | 0.936 | 0.77 | 0.744 | 0.733 | 0.918 | 0.759 | 0.527 |
| H3255 | 0.78 | 0.823 | 0.769 | 0.912 | 0.927 | 0.922 | 0.953 | 0.828 | 0.752 | 0.687 | 0.888 | 0.702 | 0.311 | 0.526 | 0.516 | 0.634 | 0.469 | 0.325 |
| NCI-H23 | 1.04 | 1.07 | 0.905 | 0.962 | 0.244 | 0.257 | 0.243 | 0.296 |  |  | 0.504 | 0.396 | 0.412 |  |  | 0.266 | 0.296 | 0.2 |
